Test results as given in the NIST ThermoML archive (doi:10.1021/je800012v).
Numbers after ± are expanded uncertainties.

Experiment: xn = mol fraction of the nth substance listed
Conditions: Liquid

CCCCCl [1-chlorobutane] + CCCCCC
mass density [kg/m3]
Conditions | x1 = 0.1099 | x1 = 0.212 | x1 = 0.2925 | x1 = 0.316 | x1 = 0.405 | x1 = 0.4978 | x1 = 0.5975 | x1 = 0.6869 | x1 = 0.8294 | x1 = 0.9025
303.15 K, 15000 kPa | – | – | – | – | – | 763.87 ± 0.52 | 786.55 ± 0.48 | 807.83 ± 0.44 | 843.86 ± 0.37 | 863.22 ± 0.34
303.15 K, 20000 kPa | 689.49 ± 0.79 | 708.98 ± 0.74 | 724.92 ± 0.7 | 729.73 ± 0.69 | 748.24 ± 0.65 | 768.43 ± 0.6 | 791.14 ± 0.55 | 812.44 ± 0.5 | 848.41 ± 0.42 | 867.82 ± 0.38
303.15 K, 25000 kPa | 693.71 ± 0.89 | 713.22 ± 0.84 | 729.21 ± 0.8 | 733.98 ± 0.79 | 752.58 ± 0.74 | 772.8 ± 0.68 | 795.51 ± 0.62 | 816.83 ± 0.57 | 852.75 ± 0.47 | 872.22 ± 0.42
303.15 K, 30000 kPa | 697.71 ± 1 | 717.27 ± 0.94 | 733.29 ± 0.89 | 738.06 ± 0.88 | 756.71 ± 0.82 | 776.94 ± 0.76 | 799.69 ± 0.69 | 821.01 ± 0.62 | 856.96 ± 0.51 | 876.44 ± 0.46
303.15 K, 35000 kPa | 701.46 ± 1.1 | 721.06 ± 1 | 737.11 ± 0.98 | 741.91 ± 0.96 | 760.56 ± 0.9 | 780.82 ± 0.83 | 803.62 ± 0.75 | 824.94 ± 0.68 | 860.94 ± 0.55 | 880.41 ± 0.49
313.15 K, 100 kPa | 660.25 ± 0.33 | 679.39 ± 0.32 | 695.16 ± 0.31 | 699.82 ± 0.3 | 718.21 ± 0.29 | 738.18 ± 0.27 | 760.7 ± 0.26 | 781.81 ± 0.24 | 817.54 ± 0.22 | 836.89 ± 0.21
313.15 K, 2500 kPa | 663.22 ± 0.39 | 682.37 ± 0.37 | 698.14 ± 0.36 | 702.79 ± 0.36 | 721.17 ± 0.34 | 741.14 ± 0.32 | 763.65 ± 0.3 | 784.75 ± 0.28 | 820.43 ± 0.25 | 839.76 ± 0.24
313.15 K, 5000 kPa | 666.15 ± 0.45 | 685.31 ± 0.43 | 701.06 ± 0.41 | 705.74 ± 0.41 | 724.11 ± 0.39 | 744.08 ± 0.37 | 766.58 ± 0.34 | 787.66 ± 0.32 | 823.33 ± 0.28 | 842.65 ± 0.26
313.15 K, 10000 kPa | 671.67 ± 0.57 | 690.86 ± 0.54 | 706.6 ± 0.52 | 711.27 ± 0.51 | 729.65 ± 0.49 | 749.65 ± 0.46 | 772.1 ± 0.42 | 793.2 ± 0.39 | 828.82 ± 0.34 | 848.11 ± 0.31
313.15 K, 15000 kPa | 676.77 ± 0.69 | 695.99 ± 0.65 | 711.76 ± 0.62 | 716.43 ± 0.61 | 734.82 ± 0.58 | 754.83 ± 0.54 | 777.29 ± 0.5 | 798.39 ± 0.46 | 833.99 ± 0.39 | 853.27 ± 0.36
313.15 K, 20000 kPa | 681.54 ± 0.8 | 700.78 ± 0.76 | 716.6 ± 0.72 | 721.27 ± 0.71 | 739.68 ± 0.67 | 759.7 ± 0.63 | 782.18 ± 0.57 | 803.3 ± 0.53 | 838.9 ± 0.44 | 858.17 ± 0.4
313.15 K, 25000 kPa | 686.03 ± 0.92 | 705.32 ± 0.86 | 721.16 ± 0.82 | 725.85 ± 0.81 | 744.28 ± 0.76 | 764.34 ± 0.71 | 786.8 ± 0.65 | 807.96 ± 0.59 | 843.57 ± 0.49 | 862.84 ± 0.44
313.15 K, 30000 kPa | 690.26 ± 1 | 709.59 ± 0.96 | 725.44 ± 0.92 | 730.12 ± 0.9 | 748.61 ± 0.84 | 768.68 ± 0.78 | 791.2 ± 0.71 | 812.36 ± 0.65 | 847.97 ± 0.54 | 867.27 ± 0.48
313.15 K, 35000 kPa | 694.28 ± 1.1 | 713.66 ± 1.1 | 729.55 ± 1 | 734.28 ± 0.99 | 752.76 ± 0.93 | 772.87 ± 0.86 | 795.4 ± 0.78 | 816.59 ± 0.71 | 852.24 ± 0.58 | 871.55 ± 0.52
323.15 K, 100 kPa | 650.68 ± 0.34 | 669.65 ± 0.33 | 685.16 ± 0.31 | 689.81 ± 0.31 | 708 ± 0.3 | 727.88 ± 0.28 | 750.16 ± 0.27 | 771.11 ± 0.25 | 806.56 ± 0.23 | 825.76 ± 0.22
323.15 K, 2500 kPa | 653.88 ± 0.4 | 672.84 ± 0.38 | 688.38 ± 0.37 | 693.01 ± 0.36 | 711.21 ± 0.35 | 730.97 ± 0.33 | 753.32 ± 0.31 | 774.25 ± 0.29 | 809.67 ± 0.26 | 828.84 ± 0.25
323.15 K, 5000 kPa | 657.08 ± 0.46 | 676.07 ± 0.44 | 691.59 ± 0.42 | 696.23 ± 0.42 | 714.41 ± 0.4 | 734.25 ± 0.38 | 756.52 ± 0.35 | 777.43 ± 0.33 | 812.8 ± 0.29 | 831.94 ± 0.27
323.15 K, 10000 kPa | 663.04 ± 0.59 | 682.03 ± 0.56 | 697.57 ± 0.53 | 702.21 ± 0.53 | 720.41 ± 0.5 | 740.23 ± 0.47 | 762.49 ± 0.44 | 783.36 ± 0.41 | 818.69 ± 0.35 | 837.82 ± 0.32
323.15 K, 15000 kPa | 668.53 ± 0.71 | 687.54 ± 0.67 | 703.11 ± 0.64 | 707.76 ± 0.63 | 725.96 ± 0.6 | 745.81 ± 0.56 | 768.07 ± 0.52 | 788.94 ± 0.48 | 824.21 ± 0.41 | 843.35 ± 0.38
323.15 K, 20000 kPa | 673.62 ± 0.82 | 692.66 ± 0.78 | 708.23 ± 0.74 | 712.92 ± 0.73 | 731.15 ± 0.69 | 751.01 ± 0.65 | 773.25 ± 0.59 | 794.16 ± 0.55 | 829.43 ± 0.47 | 848.55 ± 0.42
323.15 K, 25000 kPa | 678.38 ± 0.94 | 697.47 ± 0.88 | 713.06 ± 0.84 | 717.75 ± 0.83 | 736.01 ± 0.78 | 755.88 ± 0.73 | 778.17 ± 0.67 | 799.07 ± 0.61 | 834.36 ± 0.52 | 853.47 ± 0.47
323.15 K, 30000 kPa | 682.82 ± 1.1 | 701.95 ± 0.99 | 717.58 ± 0.94 | 722.3 ± 0.93 | 740.59 ± 0.87 | 760.48 ± 0.81 | 782.79 ± 0.74 | 803.7 ± 0.68 | 839.01 ± 0.57 | 858.16 ± 0.51
323.15 K, 35000 kPa | 687.05 ± 1.1 | 706.22 ± 1.1 | 721.89 ± 1 | 726.62 ± 1 | 744.94 ± 0.95 | 764.87 ± 0.89 | 787.22 ± 0.81 | 808.14 ± 0.74 | 843.47 ± 0.61 | 862.63 ± 0.55
333.15 K, 100 kPa | 640.84 ± 0.35 | 659.59 ± 0.33 | 674.97 ± 0.32 | 679.61 ± 0.32 | 697.62 ± 0.31 | 717.27 ± 0.29 | 739.37 ± 0.27 | 760.13 ± 0.26 | 795.31 ± 0.24 | 814.35 ± 0.23
333.15 K, 2500 kPa | 644.37 ± 0.41 | 663.28 ± 0.39 | 678.48 ± 0.38 | 683.13 ± 0.37 | 701.13 ± 0.36 | 720.76 ± 0.34 | 742.8 ± 0.32 | 763.57 ± 0.3 | 798.68 ± 0.27 | 817.7 ± 0.26
333.15 K, 5000 kPa | 647.85 ± 0.47 | 666.6 ± 0.45 | 681.96 ± 0.44 | 686.6 ± 0.43 | 704.59 ± 0.41 | 724.22 ± 0.39 | 746.27 ± 0.36 | 766.97 ± 0.34 | 802.05 ± 0.3 | 821.05 ± 0.28
333.15 K, 10000 kPa | 654.25 ± 0.6 | 673.04 ± 0.57 | 688.41 ± 0.55 | 693.04 ± 0.54 | 711.02 ± 0.51 | 730.64 ± 0.48 | 752.68 ± 0.45 | 773.35 ± 0.42 | 808.4 ± 0.37 | 827.36 ± 0.34
333.15 K, 15000 kPa | 660.12 ± 0.72 | 678.96 ± 0.69 | 694.34 ± 0.66 | 698.97 ± 0.65 | 716.97 ± 0.61 | 736.59 ± 0.58 | 758.64 ± 0.54 | 779.29 ± 0.5 | 814.33 ± 0.43 | 833.22 ± 0.39
333.15 K, 20000 kPa | 665.54 ± 0.84 | 684.42 ± 0.8 | 699.82 ± 0.76 | 704.46 ± 0.75 | 722.46 ± 0.71 | 742.1 ± 0.67 | 764.16 ± 0.62 | 784.83 ± 0.57 | 819.85 ± 0.49 | 838.75 ± 0.45
333.15 K, 25000 kPa | 670.56 ± 0.96 | 689.51 ± 0.91 | 704.94 ± 0.86 | 709.59 ± 0.85 | 727.62 ± 0.8 | 747.28 ± 0.75 | 769.35 ± 0.69 | 790.03 ± 0.64 | 825.07 ± 0.54 | 843.95 ± 0.49
333.15 K, 30000 kPa | 675.27 ± 1.1 | 694.27 ± 1 | 709.73 ± 0.96 | 714.38 ± 0.95 | 732.45 ± 0.89 | 752.13 ± 0.83 | 774.27 ± 0.77 | 794.94 ± 0.7 | 830 ± 0.6 | 848.89 ± 0.54
333.15 K, 35000 kPa | 679.71 ± 1.2 | 698.78 ± 1.1 | 714.25 ± 1.1 | 718.92 ± 1 | 737.02 ± 0.98 | 756.72 ± 0.91 | 778.9 ± 0.84 | 799.6 ± 0.77 | 834.7 ± 0.65 | 853.59 ± 0.58
